Data as given in patent US10800792B2, “Inhibitors of Bruton's tyrosine kinase and method of their use” (JANSSEN PHARMACEUTICA NV, priority 2015, dated 2020).

Biological target: unphosphorylated-BTK kinase domain (UP-BTK), GST-tagged human BTK (389-659aa) (Homo sapiens (Human), UniProt Q06187)
Test: BTK kinase Lanthascreen binding assay
Conditions: pIC50 = negative log of the IC50 in molar; 60 minutes incubation, 50 nM Tracer 236
In short: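 Lanthascreen competition binding; test compound vs fluorescent tracer on unphosphorylated BTK. Output: pIC50 (−log IC50, M).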

Chain of unphosphorylated-BTK kinase domain (UP-BTK), GST-tagged human BTK (389-659aa) (Q06187 389-659): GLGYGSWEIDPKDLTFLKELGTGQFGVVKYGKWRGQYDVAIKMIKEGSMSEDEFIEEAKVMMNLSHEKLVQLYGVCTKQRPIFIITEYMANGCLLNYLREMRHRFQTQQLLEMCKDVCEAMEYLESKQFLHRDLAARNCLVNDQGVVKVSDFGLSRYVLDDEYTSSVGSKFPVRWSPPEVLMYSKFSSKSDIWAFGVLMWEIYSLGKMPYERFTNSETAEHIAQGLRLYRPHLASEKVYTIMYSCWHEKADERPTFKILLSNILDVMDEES

Structure (SMILES)	BTK_I_binding pIC50
Cc1cc(Oc2ccccc2)ccc1N1C(=O)Nc2c(C(=O)N[C@@H]3CCCN(C(=O)CCN)C3)sc3nccc1c23 [Example 163, (R)—N-(1-(3-Aminopropanoyl)piperidin-3-yl)-5-(2-methyl-4-phenoxyphenyl)-4-oxo-4,5-dihydro-3H-1-thia-3,5,8-triazaacenaphthylene-2-carboxamide]	7.2
Cc1cc(Oc2ccccc2)ccc1N1C(=O)Nc2c(C(=O)N[C@@H]3C[C@H](F)CN(C)C3)sc3nccc1c23 [Example 164, N-((3R,5S)-5-Fluoro-1-methylpiperidin-3-yl)-5-(2-methyl-4-phenoxyphenyl)-4-oxo-4,5-dihydro-3H-1-thia-3,5,8-triazaacenaphthylene-2-carboxamide]	6.8
Cc1cc(Oc2ccccc2)ccc1N1C(=O)Nc2c(C(=O)NC3CCN(C)CC3C)sc3nccc1c23 (stereo not shown) [Example 165, N-(1,3-Dimethylpiperidin-4-yl)-5-(2-methyl-4-phenoxyphenyl)-4-oxo-4,5-dihydro-3H-1-thia-3,5,8-triazaacenaphthylene-2-carboxamide]	6.6
Cc1cc(Oc2ccccc2)ccc1N1C(=O)Nc2c(C(=O)NC3CCNC(=O)C3)sc3nccc1c23 (stereo not shown) [Example 166, 5-(2-Methyl-4-phenoxyphenyl)-4-oxo-N-(2-oxopiperidin-4-yl)-4,5-dihydro-3H-1-thia-3,5,8-triazaacenaphthylene-2-carboxamide]	6.9
Cc1cc(Oc2ccccc2)ccc1N1C(=O)Nc2c(C(=O)N[C@H]3CNC[C@@H](F)C3)sc3nccc1c23 [Example 167, N-((3R,5S)-5-fluoropiperidin-3-yl)-5-(2-methyl-4-phenoxyphenyl)-4-oxo-4,5-dihydro-3H-1-thia-3,5,8-triazaacenaphthylene-2-carboxamide]	7.0
Cc1cc(Oc2ccccc2)ccc1N1C(=O)Nc2c(C(=O)N[C@@H]3C[C@@H](O)CN(C)C3)sc3nccc1c23 [Example 168, N-((3R,5R)-5-Hydroxy-1-methylpiperidin-3-yl)-5-(2-methyl-4-phenoxyphenyl)-4-oxo-4,5-dihydro-3H-1-thia-3,5,8-triazaacenaphthylene-2-carboxamide]	6.8
CCc1ccccc1Oc1ccc(N2C(=O)Nc3c(C(=O)N[C@@H]4CCCN(C)C4)sc4nccc2c34)c(C)c1 [Example 170, (R)-5-(4-(2-Ethylphenoxy)-2-methylphenyl)-N-(1-methylpiperidin-3-yl)-4-oxo-4,5-dihydro-3H-1-thia-3,5,8-triazaacenaphthylene-2-carboxamide]	7.0
Cc1cc(Oc2ccccc2)ccc1N1C(=O)Nc2c(C(=O)NC3CC4CCN3CC4)sc3nccc1c23 (stereo not shown) [Example 171, 5-(2-Methyl-4-phenoxyphenyl)-4-oxo-N-(quinuclidin-2-yl)-4,5-dihydro-3H-1-thia-3,5,8-triazaacenaphthylene-2-carboxamide]	7.0
Cc1cc(Oc2ccccc2)ccc1N1C(=O)Nc2c(C(=O)NC3CCNCC3C)sc3nccc1c23 (stereo not shown) [Example 172, 5-(2-Methyl-4-phenoxyphenyl)-N-(3-methylpiperidin-4-yl)-4-oxo-4,5-dihydro-3H-1-thia-3,5,8-triazaacenaphthylene-2-carboxamide]	6.7
Cc1cc(Oc2ccccc2)ccc1N1C(=O)Nc2c(C(=O)N[C@H]3CNCC(F)(F)C3)sc3nccc1c23 [Example 174, (R)—N-(5,5-Difluoropiperidin-3-yl)-5-(2-methyl-4-phenoxyphenyl)-4-oxo-4,5-dihydro-3H-1-thia-3,5,8-triazaacenaphthylene-2-carboxamide]	6.6
